Test results reported in patent US10670605B2, “Cysteine reactive probes and uses thereof” (The Scripps Research Institute, priority 2015, dated 2020).
Where a name gives a salt, the structure may show the parent alone.

Columns and labels:
Type in all cases: cell-based
[1] = tested on: splenic T cells from C57BL/6 mice; assay: Activation of primary mouse T cells (CD25, CD69); conditions: C57BL/6, 8 h
Description: Spleens were harvested from female mice, perfused with collagenase, and incubated at 37° C. with 5% CO2 for 30 min. After this time, the spleens were homogenized. Cells that passed through a 100 μm cell strainer were collected and washed with RPMI. T cells were isolated from the splenocytes using the EasySepTM Mouse T cell Isolation Kit (19851; […]) according to manufacturer's instructions. 96-well plates were coated with anti-CD3 (1:200; BioXcell) and anti-CD28 (1:500; 302933; BioLegend) in PBS (100 μL/well) overnight at 4° C. The plates were then washed twice with PBS and to each well was added 500,000 primary T cells in 100 μL of RPMI supplemented with 10% FBS, glutamine, and Pen-Strep. Cells were then treated with 100 μL of media containing compound at the indicated concentrations (final well volume of 200 μL). Cells were left at 37° C. in a 5% CO2 incubator for the indicated periods of time and harvested by centrifugation (500 g, 8 min, 4° C.), followed by washing with PBS. […] Data was then analyzed with FlowJo software (Treestar Inc.). […]

PKCθ C14/C17 = biological target: T1, PKCθ C14/C17 (Homo sapiens, UniProt Q04759); assay: isoTOP-ABPP of compound-treated primary human T cells; conditions: for R value (DMSO/DMF): PRKCQ C14 (Q04759)
T1 construct: endogenous in cells; host or cells: primary human T cells
T1 sequence (Q04759 whole entry): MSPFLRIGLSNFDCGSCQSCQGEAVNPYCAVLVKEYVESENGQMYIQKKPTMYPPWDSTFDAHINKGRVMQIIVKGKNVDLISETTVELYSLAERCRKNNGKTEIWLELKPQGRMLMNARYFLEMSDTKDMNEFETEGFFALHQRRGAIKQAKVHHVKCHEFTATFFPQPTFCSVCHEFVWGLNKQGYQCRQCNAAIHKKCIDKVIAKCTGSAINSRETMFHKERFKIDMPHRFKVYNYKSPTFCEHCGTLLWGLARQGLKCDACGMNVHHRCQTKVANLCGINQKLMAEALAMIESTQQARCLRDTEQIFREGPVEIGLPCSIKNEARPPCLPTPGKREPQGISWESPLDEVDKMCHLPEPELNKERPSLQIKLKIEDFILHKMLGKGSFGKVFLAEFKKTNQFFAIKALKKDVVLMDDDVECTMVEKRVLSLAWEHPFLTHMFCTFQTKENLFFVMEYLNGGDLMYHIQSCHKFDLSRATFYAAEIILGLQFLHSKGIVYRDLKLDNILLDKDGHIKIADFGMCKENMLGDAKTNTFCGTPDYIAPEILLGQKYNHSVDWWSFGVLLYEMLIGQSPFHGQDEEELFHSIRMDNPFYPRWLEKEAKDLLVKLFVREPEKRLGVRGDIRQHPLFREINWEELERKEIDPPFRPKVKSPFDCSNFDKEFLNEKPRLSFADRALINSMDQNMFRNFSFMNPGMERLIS
Description: (§1) Cells were lysed by sonication and diluted to a concentration of 2 mg protein/mL. Protein concentrations were measured with the Bio-Rad DC™ protein assay reagents A and B (5000113, 5000114; Bio-Rad). 500 μL of proteome sample was treated with 100 μM of IA-alkyne probe using […] of a 10 mM DMSO stock. The labeling reactions were incubated at room temperature for 1 h upon which time the samples were conjugated to isotopically-labeled TEV-cleavable tags (TEV tags) by copper-catalyzed azide-alkyne cycloaddition (CuACC or ‘click chemistry’). 60 μL of heavy click chemistry reaction mixture was added to the DMSO-treated control sample and 60 μL of the light reaction mixture was added to the compound-treated sample. The click reaction mixture comprised TEV tags (10 μL of a 5 mM stock, light (fragment treated) or heavy (DMSO treated)), CuSO4 (10 μL of a 50 mM stock in water), and TBTA (30 μL of a 1.7 mM stock in 4:1 tBuOH:DMSO). To this was added TCEP (10 μL of a 50 mM stock). The reaction was performed for 1 h at room temperature.
(§2) The resulting pellets were resuspended in 500 μL of cold methanol by sonication and the heavy and light samples combined pairwise. Combined pellets were then washed with cold MeOH, after which the pellet was solubilized in PBS containing 1.2% SDS by sonication. The samples were heated at 90° C. for 5 min and subjected to streptavidin enrichment of probe-labeled proteins, sequential on-bead trypsin and TEV digestion, and liquid chromatography-tandem mass spectrometry (LC-MS/MS) according to the published isoTOP-ABPP protocols.
(§3) The quantification of heavy/light ratios (isoTOP-ABPP ratios, R values) was performed by in-house CIMAGE software using default parameters (3 MS1's per peak and signal to noise threshold of 2.5). Site-specific engagement of electrophilic compounds was assessed by blockade of IA-alkyne probe labeling. […] Overlapping peptides with the same labeled cysteine (for example, same local sequence around the labeled cysteines but different charge states, MudPIT segment numbers, or tryptic termini) were grouped together, and the median ratio from each group was recorded as the R value of the peptide for that run.

PRKDC C4045 = biological target: T2, PRKDC C4045 (Homo sapiens, UniProt P78527); assay: as above; conditions: for R value (DMSO/DMF): PRKDC C4045 (P78527)
T2 construct: endogenous in cells; host or cells: primary human T cells
T2 sequence (P78527 whole entry): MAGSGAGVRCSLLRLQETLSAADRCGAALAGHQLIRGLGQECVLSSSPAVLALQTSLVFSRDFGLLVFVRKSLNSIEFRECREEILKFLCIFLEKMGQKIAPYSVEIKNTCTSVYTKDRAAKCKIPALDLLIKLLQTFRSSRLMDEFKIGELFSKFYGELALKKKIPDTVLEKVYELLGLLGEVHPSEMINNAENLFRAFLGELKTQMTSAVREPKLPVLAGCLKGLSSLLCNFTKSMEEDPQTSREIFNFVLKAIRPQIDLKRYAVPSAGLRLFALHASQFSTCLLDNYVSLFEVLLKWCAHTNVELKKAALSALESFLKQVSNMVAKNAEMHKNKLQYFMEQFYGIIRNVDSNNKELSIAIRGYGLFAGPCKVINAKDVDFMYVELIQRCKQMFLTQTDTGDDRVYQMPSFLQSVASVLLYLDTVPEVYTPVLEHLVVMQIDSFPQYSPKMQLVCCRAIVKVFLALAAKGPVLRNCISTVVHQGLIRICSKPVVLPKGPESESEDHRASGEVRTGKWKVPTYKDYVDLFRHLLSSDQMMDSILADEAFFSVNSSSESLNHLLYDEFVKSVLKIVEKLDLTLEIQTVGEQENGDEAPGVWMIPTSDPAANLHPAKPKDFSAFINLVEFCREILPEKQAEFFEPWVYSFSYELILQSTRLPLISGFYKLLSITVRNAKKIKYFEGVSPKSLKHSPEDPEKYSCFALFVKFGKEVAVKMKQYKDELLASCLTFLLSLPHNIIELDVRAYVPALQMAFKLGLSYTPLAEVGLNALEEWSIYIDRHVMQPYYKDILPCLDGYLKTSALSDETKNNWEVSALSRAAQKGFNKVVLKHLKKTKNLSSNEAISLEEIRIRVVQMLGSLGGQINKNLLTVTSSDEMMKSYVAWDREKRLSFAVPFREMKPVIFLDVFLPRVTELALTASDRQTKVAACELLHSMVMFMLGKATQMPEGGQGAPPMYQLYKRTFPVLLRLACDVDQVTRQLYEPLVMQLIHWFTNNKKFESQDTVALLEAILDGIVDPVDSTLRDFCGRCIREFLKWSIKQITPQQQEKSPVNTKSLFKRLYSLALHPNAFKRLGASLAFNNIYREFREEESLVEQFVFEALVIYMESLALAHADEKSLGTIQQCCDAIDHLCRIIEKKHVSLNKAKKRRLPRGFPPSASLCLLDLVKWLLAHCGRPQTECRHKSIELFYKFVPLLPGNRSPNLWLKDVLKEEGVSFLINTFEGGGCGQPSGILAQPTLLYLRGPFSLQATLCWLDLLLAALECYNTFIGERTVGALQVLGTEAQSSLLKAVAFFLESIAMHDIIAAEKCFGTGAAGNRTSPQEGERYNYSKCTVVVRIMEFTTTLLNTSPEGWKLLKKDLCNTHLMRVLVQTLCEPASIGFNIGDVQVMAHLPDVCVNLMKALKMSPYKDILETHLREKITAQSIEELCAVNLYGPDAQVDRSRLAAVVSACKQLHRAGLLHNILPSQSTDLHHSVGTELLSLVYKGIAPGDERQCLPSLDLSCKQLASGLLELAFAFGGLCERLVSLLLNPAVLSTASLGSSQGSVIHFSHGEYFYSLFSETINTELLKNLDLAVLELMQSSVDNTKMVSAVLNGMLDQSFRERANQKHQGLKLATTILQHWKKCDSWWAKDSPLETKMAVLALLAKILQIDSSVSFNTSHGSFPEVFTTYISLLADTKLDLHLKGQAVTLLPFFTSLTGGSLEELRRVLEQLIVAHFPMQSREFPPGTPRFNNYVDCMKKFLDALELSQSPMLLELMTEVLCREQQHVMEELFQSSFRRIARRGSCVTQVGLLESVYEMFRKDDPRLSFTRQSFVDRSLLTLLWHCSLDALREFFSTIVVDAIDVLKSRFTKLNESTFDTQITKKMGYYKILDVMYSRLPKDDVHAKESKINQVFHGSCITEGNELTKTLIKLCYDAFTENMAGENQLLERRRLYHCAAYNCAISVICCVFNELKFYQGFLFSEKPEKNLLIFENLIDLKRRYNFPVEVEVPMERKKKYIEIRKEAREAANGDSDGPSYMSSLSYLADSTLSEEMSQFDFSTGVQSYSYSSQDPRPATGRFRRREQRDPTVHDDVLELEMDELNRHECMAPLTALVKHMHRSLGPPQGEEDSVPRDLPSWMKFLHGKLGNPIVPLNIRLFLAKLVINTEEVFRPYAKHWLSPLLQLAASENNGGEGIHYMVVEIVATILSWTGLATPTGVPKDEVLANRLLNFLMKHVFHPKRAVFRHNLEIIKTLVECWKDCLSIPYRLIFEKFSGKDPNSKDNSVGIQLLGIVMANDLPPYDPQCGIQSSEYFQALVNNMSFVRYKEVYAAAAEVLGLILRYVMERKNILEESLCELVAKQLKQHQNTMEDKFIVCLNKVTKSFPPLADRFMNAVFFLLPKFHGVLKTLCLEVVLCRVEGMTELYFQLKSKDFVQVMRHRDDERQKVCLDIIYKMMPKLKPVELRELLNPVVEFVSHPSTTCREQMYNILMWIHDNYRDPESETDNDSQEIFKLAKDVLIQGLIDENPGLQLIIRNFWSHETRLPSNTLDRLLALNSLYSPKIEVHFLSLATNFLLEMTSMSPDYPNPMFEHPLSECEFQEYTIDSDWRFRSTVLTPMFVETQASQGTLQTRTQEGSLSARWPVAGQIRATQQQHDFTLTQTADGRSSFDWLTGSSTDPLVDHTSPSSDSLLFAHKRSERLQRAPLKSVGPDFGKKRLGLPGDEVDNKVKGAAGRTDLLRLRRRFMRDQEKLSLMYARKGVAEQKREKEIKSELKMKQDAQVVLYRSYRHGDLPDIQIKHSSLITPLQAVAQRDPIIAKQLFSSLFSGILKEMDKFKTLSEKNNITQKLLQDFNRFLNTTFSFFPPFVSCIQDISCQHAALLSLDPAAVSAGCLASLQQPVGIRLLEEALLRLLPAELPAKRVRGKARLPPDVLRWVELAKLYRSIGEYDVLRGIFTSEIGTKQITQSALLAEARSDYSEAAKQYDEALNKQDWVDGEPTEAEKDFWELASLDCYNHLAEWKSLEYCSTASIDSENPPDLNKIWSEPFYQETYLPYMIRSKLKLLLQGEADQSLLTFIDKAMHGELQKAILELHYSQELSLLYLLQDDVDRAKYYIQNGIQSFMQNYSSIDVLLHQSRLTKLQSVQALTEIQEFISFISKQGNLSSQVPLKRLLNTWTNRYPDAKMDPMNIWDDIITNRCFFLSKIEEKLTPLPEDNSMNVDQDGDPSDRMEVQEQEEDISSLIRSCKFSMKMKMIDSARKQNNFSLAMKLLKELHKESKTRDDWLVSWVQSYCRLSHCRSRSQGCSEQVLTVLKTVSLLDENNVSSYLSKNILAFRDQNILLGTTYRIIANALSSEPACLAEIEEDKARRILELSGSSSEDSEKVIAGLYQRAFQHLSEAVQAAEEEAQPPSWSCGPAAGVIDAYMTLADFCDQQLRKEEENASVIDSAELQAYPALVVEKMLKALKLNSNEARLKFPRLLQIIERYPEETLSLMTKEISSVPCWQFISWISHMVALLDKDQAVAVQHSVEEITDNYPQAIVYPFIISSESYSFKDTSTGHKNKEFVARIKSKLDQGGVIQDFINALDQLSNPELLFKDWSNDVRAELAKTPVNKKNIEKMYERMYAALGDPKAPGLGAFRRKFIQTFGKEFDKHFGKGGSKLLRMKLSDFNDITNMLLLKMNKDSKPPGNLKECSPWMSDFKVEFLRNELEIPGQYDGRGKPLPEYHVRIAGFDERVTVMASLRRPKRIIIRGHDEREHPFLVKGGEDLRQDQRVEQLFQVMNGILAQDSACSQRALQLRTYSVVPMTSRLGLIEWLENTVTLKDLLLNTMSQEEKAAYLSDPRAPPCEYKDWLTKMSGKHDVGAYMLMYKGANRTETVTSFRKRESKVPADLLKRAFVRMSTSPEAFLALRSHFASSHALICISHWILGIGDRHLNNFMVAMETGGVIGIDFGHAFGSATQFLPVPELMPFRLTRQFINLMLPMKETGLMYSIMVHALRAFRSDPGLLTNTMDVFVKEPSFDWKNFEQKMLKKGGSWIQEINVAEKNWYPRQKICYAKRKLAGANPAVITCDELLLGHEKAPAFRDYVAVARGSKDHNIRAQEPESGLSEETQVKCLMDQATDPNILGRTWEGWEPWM
Description: as §1, §2, §3

PKCθ C322 = biological target: T3, PKCθ C322 (Homo sapiens, UniProt Q04759); assay: as above; conditions: 50 μM, 4 h
T3 construct: endogenous in cells; host or cells: primary human T cells
T3 sequence (Q04759 whole entry): as the sequence (Q04759 whole entry) above
Description: as §1, §2, §3

COC(=O)/C=C/C(=O)OC [DMF, dimethyl fumarate]
activation of primary mouse splenic T cells [1]: suppressed
IA-alkyne reactivity of PKCθ C14 and C17 (PKCθ C14/C17; 50 μM, 4 h): blocked
R value (DMSO/DMF) (PKCθ C14/C17; DMF 10 μM 4h): 1.62
R value (DMSO/DMF) (PKCθ C14/C17; DMF 25 μM 4h): 3.29
R value (DMSO/DMF) (PKCθ C14/C17; DMF 50 μM 2h): 2.92
R value (DMSO/DMF) (PKCθ C14/C17; DMF 50 μM 4h): 4.21
IA-alkyne reactivity of PRKDC C4045 (PRKDC C4045; 50 μM, 4 h): blocked
R value (DMSO/DMF) (PRKDC C4045; DMF 50 μM 1h): 4.14
R value (DMSO/DMF) (PRKDC C4045; DMF 50 μM 2h): 10.53
IA-alkyne reactivity of PKCθ C322 (PKCθ C322): unaffected
